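These data come from cells grown in 96-well plates and exposed to compound for 48 hours at five concentrations. GI50 is the concentration that inhibits growth by half.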 Activity calls are given as the source filed them. No stated cut-off is given here; in the data, active = GI50 up to about 1.1 µM and inactive = higher.
Columns and labels:
Experiment in all cases: growth of human tumour cells (NCI), 48 h
SN12C = test system: SN12C
LOX IMVI = test system: LOX IMVI
786-0 = test system: 786-0
CCRF-CEM = test system: CCRF-CEM
NCI-H522 = test system: NCI-H522
MOLT-4 = test system: MOLT-4
A498 = test system: A498
EKVX = test system: EKVX
SNB-19 = test system: SNB-19
KM-20L2 = test system: KM-20L2
SK-OV-3 = test system: SK-OV-3
SF-539 = test system: SF-539
IGROV-1 = test system: IGROV-1
RPMI-8226 = test system: RPMI-8226
HOP-62 = test system: HOP-62
UACC-257 = test system: UACC-257
HL-60 = test system: HL-60
RXF 631 = test system: RXF 631
HT-29 = test system: HT-29
SF-295 = test system: SF-295
DMS-114 = test system: DMS-114
HOP-92 = test system: HOP-92
SW-620 = test system: SW-620
XF498 = test system: XF498
SNB-78 = test system: SNB-78
M14 = test system: M14
SF-268 = test system: SF-268
M19-MEL = test system: M19-MEL
OVCAR-8 = test system: OVCAR-8
SK-MEL-2 = test system: SK-MEL-2
HCT-116 = test system: HCT-116
U-251 = test system: U-251
KM12 = test system: KM12
UACC-62 = test system: UACC-62
HCT-15 = test system: HCT-15
DMS-273 = test system: DMS-273
NCI-H23 = test system: NCI-H23
RXF 393 = test system: RXF 393
SR = test system: SR
COLO 205 = test system: COLO 205
CAKI-1 = test system: CAKI-1
OVCAR-3 = test system: OVCAR-3
Malme-3M = test system: Malme-3M
OVCAR-4 = test system: OVCAR-4
HCC 2998 = test system: HCC 2998
OVCAR-5 = test system: OVCAR-5
K562 = test system: K562
ACHN = test system: ACHN
NCI-H226 = test system: NCI-H226
A549 = test system: A549
SK-MEL-28 = test system: SK-MEL-28
UO-31 = test system: UO-31
NCI-H460 = test system: NCI-H460
TK-10 = test system: TK-10
LXFL 529 = test system: LXFL 529
NCI/ADR-RES = test system: NCI/ADR-RES
MDA-N = test system: MDA-N
MCF7 = test system: MCF7
MDA-MB-435 = test system: MDA-MB-435
DU-145 = test system: DU-145
Hs-578T = test system: Hs-578T
T47D = test system: T47D
DLD-1 = test system: DLD-1
PC-3 = test system: PC-3
SK-MEL-5 = test system: SK-MEL-5
HOP-18 = test system: HOP-18
SNB-75 = test system: SNB-75
MDA-MB-231 = test system: MDA-MB-231
BT-549 = test system: BT-549

For `CC1CCC2(C)C(CC=C(C=O)C2(O)C=O)C12CO2` (configuration not stated), the GI50 (SN12C) was 2600 nM (inactive), the GI50 (LOX IMVI) was 2690 nM (inactive) and the GI50 (786-0) was 2400 nM (inactive). For the same compound, the GI50 (CCRF-CEM) was 1260 nM (inactive), the GI50 (NCI-H522) was 2310 nM (inactive) and the GI50 (MOLT-4) was 1870 nM (inactive). For the same compound, the GI50 (A498) was 6700 nM (inactive), the GI50 (EKVX) was 6980 nM (inactive) and the GI50 (SNB-19) was 9660 nM (inactive). For the same compound, the GI50 (KM-20L2) was 2490 nM (inactive), the GI50 (SK-OV-3) was 3270 nM (inactive) and the GI50 (SF-539) was 2190 nM (inactive). For the same compound, the GI50 (IGROV-1) was 2320 nM (inactive), the GI50 (RPMI-8226) was 2150 nM (inactive) and the GI50 (HOP-62) was 20900 nM (inactive). For the same compound, the GI50 (UACC-257) was 1520 nM (inactive), the GI50 (HL-60) was 877 nM (active) and the GI50 (RXF 631) was 1990 nM (inactive). For the same compound, the GI50 (HT-29) was 2550 nM (inactive), the GI50 (SF-295) was 3310 nM (inactive) and the GI50 (DMS-114) was 1570 nM (inactive). For the same compound, the GI50 (HOP-92) was 2010 nM (inactive), the GI50 (SW-620) was 2360 nM (inactive) and the GI50 (XF498) was 2170 nM (inactive). The GI50 (SNB-78) was 2070 nM (inactive), the GI50 (M14) was 1360 nM (inactive) and the GI50 (SF-268) was 4250 nM (inactive). The GI50 (M19-MEL) was 1730 nM (inactive), the GI50 (OVCAR-8) was 2220 nM (inactive) and the GI50 (SK-MEL-2) was 2520 nM (inactive). For the same compound, the GI50 (HCT-116) was 1490 nM (inactive), the GI50 (U-251) was 2810 nM (inactive) and the GI50 (KM12) was 3210 nM (inactive). The GI50 (UACC-62) was 1640 nM (inactive), the GI50 (HCT-15) was 2140 nM and the GI50 (DMS-273) was 1790 nM (inactive). The GI50 (NCI-H23) was 2250 nM (inactive), the GI50 (RXF 393) was 1480 nM (inactive) and the GI50 (SR) was 1710 nM (inactive). For the same compound, the GI50 (COLO 205) was 1330 nM (inactive), the GI50 (CAKI-1) was 2960 nM (inactive) and the GI50 (OVCAR-3) was 481 nM (active). The GI50 (Malme-3M) was 2640 nM (inactive), the GI50 (OVCAR-4) was 2230 nM (inactive) and the GI50 (HCC 2998) was 2290 nM (inactive). The GI50 (OVCAR-5) was 2730 nM (inactive), the GI50 (K562) was 1700 nM (inactive) and the GI50 (ACHN) was 1760 nM (inactive). The GI50 (NCI-H226) was 665 nM (active), the GI50 (A549) was 10400 nM (inactive) and the GI50 (SK-MEL-28) was 1790 nM (inactive). The GI50 (UO-31) was 1810 nM (inactive), the GI50 (NCI-H460) was 2570 nM (inactive) and the GI50 (TK-10) was 1970 nM (inactive). The GI50 (LXFL 529) was 1540 nM (inactive).

`CCCC(=O)N[C@H]1CCc2cc(OC)c(OC)c(OC)c2-c2ccc(SC)c(=O)cc21` was tested, and the GI50 (NCI/ADR-RES) was 16 nM (active), the GI50 (SN12C) was < 10 nM (active) and the GI50 (LOX IMVI) was < 10 nM (active). For the same compound, the GI50 (786-0) was < 10 nM (active), the GI50 (CCRF-CEM) was < 46.5 nM (active) and the GI50 (MDA-N) was < 10 nM (active). The GI50 (NCI-H522) was < 10 nM (active), the GI50 (MOLT-4) was < 10 nM (active) and the GI50 (A498) was < 10 nM (active). For the same compound, the GI50 (EKVX) was 51900 nM (inactive), the GI50 (MCF7) was < 10 nM (active) and the GI50 (SNB-19) was < 10 nM (active). The GI50 (KM-20L2) was < 10 nM (active), the GI50 (SK-OV-3) was 143 nM (active) and the GI50 (MDA-MB-435) was < 10 nM (active). The GI50 (SF-539) was < 10 nM (active), the GI50 (IGROV-1) was < 10 nM (active) and the GI50 (RPMI-8226) was 63.1 nM (active). For the same compound, the GI50 (HOP-62) was < 10 nM (active), the GI50 (DU-145) was < 10 nM (active) and the GI50 (Hs-578T) was < 10 nM (active). For the same compound, the GI50 (HL-60) was < 10 nM (active), the GI50 (T47D) was > 100000 nM (inactive) and the GI50 (RXF 631) was < 10 nM (active). The GI50 (HT-29) was < 10 nM (active), the GI50 (SF-295) was < 10 nM (active) and the GI50 (DMS-114) was < 10 nM (active). The GI50 (DLD-1) was < 10 nM (active), the GI50 (HOP-92) was < 10 nM (active) and the GI50 (SW-620) was < 10 nM (active). For the same compound, the GI50 (SNB-78) was < 10 nM (active), the GI50 (M14) was < 10 nM (active) and the GI50 (SF-268) was < 10 nM (active). The GI50 (M19-MEL) was < 10 nM (active), the GI50 (OVCAR-8) was < 10 nM (active) and the GI50 (PC-3) was < 10 nM (active). The GI50 (SK-MEL-5) was < 10 nM (active), the GI50 (SK-MEL-2) was < 10 nM (active) and the GI50 (HCT-116) was < 10 nM (active). For the same compound, the GI50 (U-251) was < 10 nM (active), the GI50 (KM12) was < 10 nM (active) and the GI50 (UACC-62) was < 10 nM (active). The GI50 (HCT-15) was 10.9 nM, the GI50 (DMS-273) was < 10 nM (active) and the GI50 (NCI-H23) was < 10 nM (active). For the same compound, the GI50 (RXF 393) was 175 nM (active), the GI50 (HOP-18) was > 35800 nM (inactive) and the GI50 (SR) was < 10 nM (active). The GI50 (COLO 205) was < 10 nM (active), the GI50 (CAKI-1) was < 10 nM (active) and the GI50 (OVCAR-3) was < 10 nM (active). For the same compound, the GI50 (Malme-3M) was < 10 nM (active), the GI50 (SNB-75) was < 10 nM (active) and the GI50 (OVCAR-4) was 17100 nM (inactive). The GI50 (HCC 2998) was < 10 nM (active), the GI50 (OVCAR-5) was 278 nM (active) and the GI50 (K562) was < 10 nM (active). For the same compound, the GI50 (ACHN) was < 10 nM (active), the GI50 (NCI-H226) was < 46.5 nM (active) and the GI50 (A549) was < 10 nM (active). The GI50 (SK-MEL-28) was < 10 nM (active), the GI50 (UO-31) was 310 nM (active) and the GI50 (NCI-H460) was < 10 nM (active). For the same compound, the GI50 (MDA-MB-231) was < 10 nM (active), the GI50 (TK-10) was < 41.1 nM (active) and the GI50 (BT-549) was < 10 nM (active). For the same compound, the GI50 (LXFL 529) was < 10 nM (active).

From ChEMBL document CHEMBL1201862, “PubChem BioAssay data set” (2004)
